Values of other authors as cited in patent US10736889B2, “Method of treating dyskinesia” (Rutgers, The State University of New Jersey, priority 2011, dated 2020).
Where two headings read alike, the source gives them in different places.

Experiments:
[1] = biological target: δ-opioid receptors (Homo sapiens, UniProt P41143); conditions: for Ki: read-out: Ki for δ-opioid receptors
[2] = system: LID; conditions: only drug available
[3] = system: hemiparkinsonian marmoset monkeys; conditions: lower doses
[4] = system: LID; conditions: in vivo
[5] = biological target: κ-opioid receptors (Homo sapiens, UniProt P41145); conditions: for Ki: read-out: Ki for κ-opioid receptors; for IC50: read-out: IC50 for κ-opioid receptors
κ-opioid receptors, sequence (P41145 whole entry): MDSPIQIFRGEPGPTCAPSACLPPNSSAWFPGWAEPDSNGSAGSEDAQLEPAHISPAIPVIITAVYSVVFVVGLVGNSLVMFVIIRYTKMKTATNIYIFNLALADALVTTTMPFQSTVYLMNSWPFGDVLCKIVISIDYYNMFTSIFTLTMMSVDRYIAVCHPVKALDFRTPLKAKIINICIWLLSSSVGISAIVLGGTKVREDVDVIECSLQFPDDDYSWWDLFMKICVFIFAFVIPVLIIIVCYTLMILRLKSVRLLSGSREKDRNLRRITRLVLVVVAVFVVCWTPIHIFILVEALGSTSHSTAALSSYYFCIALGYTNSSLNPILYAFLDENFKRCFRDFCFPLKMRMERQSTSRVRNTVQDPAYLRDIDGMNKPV

[6] = biological target: μ-opioid receptors (Homo sapiens, UniProt P35372); conditions: for Ki: read-out: Ki for μ-opioid receptors
μ-opioid receptors, sequence (P35372 whole entry): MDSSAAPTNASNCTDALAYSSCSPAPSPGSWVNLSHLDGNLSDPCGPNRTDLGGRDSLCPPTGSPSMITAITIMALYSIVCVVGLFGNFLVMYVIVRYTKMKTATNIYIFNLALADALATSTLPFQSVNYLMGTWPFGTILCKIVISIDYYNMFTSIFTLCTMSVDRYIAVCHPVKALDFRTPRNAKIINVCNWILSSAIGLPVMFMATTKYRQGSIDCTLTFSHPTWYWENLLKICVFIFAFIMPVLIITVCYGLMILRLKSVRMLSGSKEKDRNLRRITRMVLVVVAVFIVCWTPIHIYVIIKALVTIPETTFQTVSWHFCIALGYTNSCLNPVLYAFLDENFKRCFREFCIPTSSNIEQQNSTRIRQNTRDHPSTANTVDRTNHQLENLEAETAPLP

[7] = system: LID; conditions: variable effects in monkeys and humans
[8] = compared with Nalbuphine itself
[9] = system: 6-hydroxydopamine-lesioned rat model

δ-opioid receptors, sequence (P41143 whole entry): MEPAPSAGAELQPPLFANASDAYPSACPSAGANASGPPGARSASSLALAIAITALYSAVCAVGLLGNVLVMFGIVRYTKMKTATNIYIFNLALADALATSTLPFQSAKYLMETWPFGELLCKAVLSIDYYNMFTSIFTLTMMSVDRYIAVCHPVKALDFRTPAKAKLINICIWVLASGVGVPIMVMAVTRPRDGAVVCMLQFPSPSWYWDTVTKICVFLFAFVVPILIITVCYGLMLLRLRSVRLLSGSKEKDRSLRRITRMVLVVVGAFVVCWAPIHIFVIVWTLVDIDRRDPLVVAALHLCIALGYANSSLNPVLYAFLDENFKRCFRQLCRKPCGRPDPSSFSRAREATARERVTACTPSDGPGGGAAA

N-allyl-normorphine [Nalorphine]
Ki [1]: ~6.33 nM

Cl.NC12CC3CC(CC(C3)C1)C2 [amantadine, 1-adamantanamine hydrochloride]
LID [2]: modestly reduce LID

Oc1ccc2c3c1O[C@H]1c4[nH]c5ccccc5c4C[C@@]4(O)[C@@H](C2)N(CC2CC2)CC[C@]314 [naltrindole]
levodopa-induced rotations [3]: reduce levodopa-induced rotations

COc1cccc2c1[C@]13CCN(CC4CC4)[C@H](C2)[C@]1(OC)CCC(=O)C3 [cyprodime]
peak-dose LID [4]: significantly reduces

Oc1ccc2c(c1)[C@@]13CCCC[C@@]1(O)[C@@H](C2)N(CC1CCC1)CC3 [Butorphanol]
Ki [5]: ~0.12 nM
Ki [1]: ~12 nM

C=CCN1CCC2(C)c3cc(O)ccc3CC1C2C (stereo not shown) [Alazocine]
Ki [6]: ~3 nM
Ki [5]: ~4.7 nM
Ki [1]: ~15 nM

C=CCN1CC[C@]23c4c5ccc(OC)c4O[C@H]2[C@@H](O)C=C[C@H]3[C@H]1C5 [Nalodeine]
Ki [1]: < 1000 nM

CC(C)=CCN1CC[C@@]2(C)c3cc(O)ccc3C[C@@H]1C2C (stereo in doubt) [Pentazocine]
Ki [5]: ~2.2 nM

NC(=O)c1ccc2c(c1O)[C@]13CCN(CC4CC4)C(C2)[C@]1(O)CCC(=O)C3 [Samidorphan]
Ki [6]: ~0.052 nM
Ki [5]: ~0.23 nM
Ki [1]: ~2.6 nM

CCC12CCN(CC3(O)CC3)C(Cc3ccc(O)cc31)C2(C)C (stereo not shown) [Bremazocine]
IC50 [5]: ~0.16 nM
Ki [1]: < 1000 nM

O=C1CC[C@@]2(O)[C@H]3Cc4ccc(O)c5c4[C@@]2(CCN3CC2CC2)[C@H]1O5 [Naltrexone]
LID [7]: no change, increases or decreases

Oc1ccc2c3c1O[C@H]1c4oc5ccccc5c4C[C@@]4(O)[C@@H](C2)N(CC2CC2)CC[C@]314 [Naltriben]
Ki [6]: ~19.8 nM
Ki [5]: ~82.8 nM

C=CCN1CC[C@]23c4c5ccc(O)c4O[C@H]2C(=O)CC[C@@]3(O)[C@H]1C5 [Naloxone]
LID [7]: no change, increases or decreases

O=C(CCCCCCCCC(=O)Oc1ccc2c3c1O[C@H]1[C@@H](O)CC[C@@]4(O)[C@@H](C2)N(CC2CCC2)CC[C@]314)Oc1ccc2c3c1O[C@H]1[C@@H](O)CC[C@@]4(O)[C@@H](C2)N(CC2CCC2)CC[C@]314 [sebacoyl di-Nalbuphine ester]
bioavailability [8]: improved over that of Nalbuphine itself

Oc1ccc2c3c1O[C@H]1c4[nH]c5c(c4C[C@@]4(O)[C@@H](C2)N(CC2CC2)CC[C@]314)C[C@@]1(O)[C@H]2Cc3ccc(O)c4c3[C@@]1(CCN2CC1CC1)[C@H]5O4 [nor-BNI]
levodopa-induced hyperkinesias [9]: moderates

CNCC[C@@H](Oc1ccccc1C)c1ccccc1 [Atomoxetine]
IC50 [6]: ~4190 nM
IC50 [5]: ~4380 nM
IC50 ([1]; read-out: IC50 for δ-opioid receptors): < 5000 nM
